In patent US10377763B2, “Morphinan derivative and medical usage thereof” (UNIVERSITY OF TSUKUBA, priority 2015, dated 2019):
Read-outs that look alike come from different tables or passages of the source.

Assays:
human OX1R = human OX1R (Homo sapiens (Human), UniProt O43613); experiment: Measurement of antagonistic activity against orexin receptors (intracellular calcium, CHOOX1R cells); assay type: cell-based; details: for antagonistic activity against human OX1 receptor (in words): summary of Table 6
human OX1R, sequence (O43613 whole entry): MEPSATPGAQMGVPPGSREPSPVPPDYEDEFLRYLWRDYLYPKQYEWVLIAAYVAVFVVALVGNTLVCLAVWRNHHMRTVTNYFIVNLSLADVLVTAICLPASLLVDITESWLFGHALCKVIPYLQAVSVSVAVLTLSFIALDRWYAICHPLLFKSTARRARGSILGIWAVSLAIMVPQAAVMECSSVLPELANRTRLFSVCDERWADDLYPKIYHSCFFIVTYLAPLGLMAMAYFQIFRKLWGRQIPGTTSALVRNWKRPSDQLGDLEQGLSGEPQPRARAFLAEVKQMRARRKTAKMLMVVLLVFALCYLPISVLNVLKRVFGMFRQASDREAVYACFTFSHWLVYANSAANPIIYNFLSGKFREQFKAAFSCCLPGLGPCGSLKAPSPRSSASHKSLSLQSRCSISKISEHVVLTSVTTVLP
Protocol: (§1) The Chinese hamster ovary (CHO) cell lines CHOOX1R and CHOOX2R were established by modifying CHO cells to constantly express the NFAT-luciferase gene and either the human OX1R or human OX2R gene. Those cells were plated at 10,000 cells/well in 96-well multiplates with DMEM (manufactured by Sigma-Aldrich Co. LLC) supplemented with 5% FBS (manufactured by Thermo Scientific Inc.) and incubated at 37° C. and 5% CO2 for 48 hours. After removal of the medium, 100 μL of an assay buffer (20 mM HEPES (manufactured by Sigma-Aldrich Co. LLC), Hank's balanced salt solution (manufactured by Gibco), 0.1% BSA (manufactured by Sigma-Aldrich Co. LLC), 2.5 mM probenecid acid (manufactured by Wako Pure Chemical Industries, Ltd.), pH 7.4) containing 5 μM Fura-2AM (manufactured by Cayman Chemical Co.) was added to each well, and incubated at 37° C. and 5% CO2 for 60 minutes. After removal of the buffer containing Fura-2AM, 75 μL of the assay buffer was added to each well. Then, […] of the assay buffer containing a test compound at various concentrations and OX-A (manufactured by Peptide Institute, Inc.) was added to start the reaction. The change in intracellular calcium ion concentration induced by the reaction was evaluated by the ratio of fluorescent intensities, which were measured at a wavelength of 510 nm based on the two wavelength excitation approach using FDSS 7000 (manufactured by Hamamatsu Photonics K.K.) with fluorescence excitation at 340 nm and 380 nm. A concentration-response curve on the antagonistic activity was plotted from the values of maximal fluorescent intensity ratio determined when various concentrations of a test compound were added in the presence of […] of OX-A, where a value of maximal fluorescent intensity ratio determined by adding 300 pM of OX-A alone corresponds to 100% and a value of maximal fluorescent intensity ratio determined by adding the assay buffer alone corresponds to 0%. Based on the resulting non-linear regression curve, the 50% maximal inhibitory concentration (IC50) was calculated. Each test compound was dissolved in DMSO to a concentration of 10 mM (the final concentration of DMSO was 1%), and then diluted with the assay buffer to give a final concentration of 3.0×10^−10 M to 1.0×10^−5 M (a common ratio of 3), while OX-A was diluted to a final concentration of 300 pM. The experiment was performed in quadruplicate plates, and the results of the four independent measurements were averaged to give the value of each reaction, and then the IC50 of a sample was calculated. If the sample number was 2 or more, the averaged IC50 was used.

human OX2R = human OX2R (Homo sapiens (Human), UniProt O43614); experiment: Measurement of antagonistic activity against orexin receptors (intracellular calcium, CHOOX2R cells); assay type: cell-based
human OX2R, sequence (O43614 whole entry): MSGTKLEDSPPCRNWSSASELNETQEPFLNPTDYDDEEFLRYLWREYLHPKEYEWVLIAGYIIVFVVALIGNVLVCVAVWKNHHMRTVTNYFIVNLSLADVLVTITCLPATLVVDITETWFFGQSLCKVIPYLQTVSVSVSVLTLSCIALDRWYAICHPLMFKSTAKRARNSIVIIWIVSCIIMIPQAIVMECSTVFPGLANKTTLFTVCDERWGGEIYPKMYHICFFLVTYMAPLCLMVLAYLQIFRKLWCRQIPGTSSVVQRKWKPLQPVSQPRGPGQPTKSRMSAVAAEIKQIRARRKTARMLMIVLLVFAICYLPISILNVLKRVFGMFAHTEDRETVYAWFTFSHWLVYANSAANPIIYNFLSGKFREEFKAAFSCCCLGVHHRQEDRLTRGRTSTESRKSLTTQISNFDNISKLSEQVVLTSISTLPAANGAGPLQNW
Protocol: as §1

[1] = CHOOX1R cells, 300 pM OX-A, Fura-2 calcium, read-out: OX1 (IC50)
[2] = CHOOX2R cells, 300 pM OX-A, Fura-2 calcium, read-out: OX2 (IC50)

Row | SMILES | IC50 (human OX1R; [1]) [µM] | antagonistic activity against human OX1 receptor (in words) (human OX1R) | IC50 (human OX2R; [2]) [µM] | IC50 (human OX1R) [µM] | IC50 (human OX2R) [µM]
1 | COc1ccc2c3c1O[C@H]1[C@H](N(C)Cc4ccccc4)CC[C@@]4(O)[C@@H](C2)N(C(=O)OC(C)(C)C)CC[C@]314 [Comparative Example 2, tert-butyl(4R,4aS,7R,7aR,12bS)-7-[benzyl(methyl)amino]-4a-hydroxy-9-methoxy-1,2,4,4a,5,6,7,7a-octahydro-3H-4,12-methanobenzofuro[3,2-e]isoquinolin-3-carboxylate, reference compound] | 2.85 | very weak antagonistic activity | > 10 | – | –
2 | COc1ccc2c3c1O[C@H]1[C@H](N(C)C(=O)/C=C/c4ccoc4)CC[C@@]4(O)[C@@H](C2)N(S(=O)(=O)c2ccccc2Br)CC[C@]314 [Example 20] | 0.0562 | potent and selective antagonistic activity | > 10 | – | –
3 | COc1ccc2c3c1O[C@H]1[C@H](N(C)C(=O)/C=C/c4ccoc4)CC[C@@]4(O)[C@@H](C2)N(S(=O)(=O)c2ccccc2)CC[C@]314 [Example 1, (E)-3-(furan-3-yl)-N-[(4R,4aS,7R,7aR,12bS)-4a-hydroxy-9-methoxy-3-(phenylsulfonyl)-2,3,4,4a,5,6,7,7a-octahydro-1H-4,12-methanobenzofuro[3,2-e]isoquinolin-7-yl]-N-methylacrylamide] | – | potent and selective antagonistic activity | – | 0.0828 | > 10
4 | COc1ccc2c3c1O[C@H]1[C@H](N(C)C(=O)/C=C/c4ccoc4)CC[C@@]4(O)[C@@H](C2)N(S(=O)(=O)c2ccc(N(C)C)cc2)CC[C@]314.Cl [Example 32] | 0.0117 | potent and selective antagonistic activity | > 10 | – | –
5 | COc1ccc2c3c1O[C@H]1[C@H](N(C)C(=O)/C=C/c4ccoc4)CC[C@@]4(O)[C@@H](C2)N(S(=O)(=O)c2cccc(F)c2)CC[C@]314 [Example 15] | 0.112 | potent and selective antagonistic activity | > 10 | – | –
6 | COc1ccc2c3c1O[C@H]1[C@H](N(C)C(=O)/C=C/c4ccoc4)CC[C@@]4(O)[C@@H](C2)N(C(=O)c2ccc(C)cc2)CC[C@]314 [Example 35] | 0.571 | potent and selective antagonistic activity | > 10 | – | –
7 | COc1ccc2c3c1O[C@H]1[C@H](N(C)C(=O)/C=C/c4ccoc4)CC[C@@]4(O)[C@@H](C2)N(S(=O)(=O)c2ccccc2[N+](=O)[O-])CC[C@]314 [Example 8] | 0.144 | potent and selective antagonistic activity | > 10 | – | –
8 | COc1ccc2c3c1O[C@H]1[C@H](N(C)C(=O)/C=C/c4ccoc4)CC[C@@]4(O)[C@@H](C2)N(S(=O)(=O)c2c(C)cc(C)cc2C)CC[C@]314 [Example 23] | 0.121 | potent and selective antagonistic activity | > 10 | – | –
9 | COc1ccc2c3c1O[C@H]1[C@H](N(C)C(=O)/C=C/c4ccoc4)CC[C@@]4(O)[C@@H](C2)N(S(=O)(=O)c2ccccc2C)CC[C@]314 [Example 2] | 0.03 | potent and selective antagonistic activity | > 10 | – | –
10 | COc1ccc2c3c1O[C@H]1[C@H](N(C)C(=O)/C=C/c4ccoc4)CC[C@@]4(O)[C@@H](C2)N(S(=O)(=O)c2ccccc2C#N)CC[C@]314 [Example 11] | 0.0491 | potent and selective antagonistic activity | > 10 | – | –
11 | COc1ccc2c3c1O[C@H]1[C@H](N(C)C(=O)/C=C/c4ccoc4)CC[C@@]4(O)[C@@H](C2)N(S(=O)(=O)c2cccc(Br)c2)CC[C@]314 [Example 21] | 0.2 | potent and selective antagonistic activity | > 10 | – | –
12 | COc1ccc2c3c1O[C@H]1[C@H](N(C)C(=O)/C=C/c4ccoc4)CC[C@@]4(O)[C@@H](C2)N(S(=O)(=O)c2cccc(Cl)c2)CC[C@]314 [Example 18] | 0.195 | potent and selective antagonistic activity | > 10 | – | –
13 | COc1ccc2c3c1O[C@H]1[C@H](N(C)C(=O)C=Cc4ccccc4)CC[C@@]4(O)[C@@H](C2)N(S(=O)(=O)c2ccccc2)CC[C@]314 [Example 38, N-[(4R,4aS,7R,7aR,12bS)-4a-hydroxy-9-methoxy-3-(phenylsulfonyl)-2,3,4,4a,5,6,7,7a-octahydro-1H-4,12-methanobenzofuro[3,2-e]isoquinolin-7-yl]-N-methylcinnamide] | 0.128 | potent and selective antagonistic activity | > 10 | – | –
14 | COc1ccc2c3c1O[C@H]1[C@H](N(C)C(=O)/C=C/c4ccoc4)CC[C@@]4(O)[C@@H](C2)N(S(=O)(=O)c2ccc(C)cc2)CC[C@]314 [Example 4] | 0.162 | potent and selective antagonistic activity | > 10 | – | –
15 | COc1ccc2c3c1O[C@H]1[C@H](N(C)C(=O)Nc4ccccc4)CC[C@@]4(O)[C@@H](C2)N(S(=O)(=O)c2ccccc2)CC[C@]314 [Example 41] | 0.159 | potent and selective antagonistic activity | > 10 | – | –
16 | COc1ccc2c3c1O[C@H]1[C@H](N(C)C(=O)/C=C/c4ccoc4)CC[C@@]4(O)[C@@H](C2)N(S(=O)(=O)c2ccccc2C(F)(F)F)CC[C@]314 [Example 5] | 0.419 | potent and selective antagonistic activity | > 10 | – | –
17 | COc1ccc2c3c1O[C@H]1[C@H](N(C)C(=O)/C=C/c4ccoc4)CC[C@@]4(O)[C@@H](C2)N(S(=O)(=O)c2cccc5cccnc25)CC[C@]314 [Example 25] | 0.198 | potent and selective antagonistic activity | > 10 | – | –
18 | COc1ccc2c3c1O[C@H]1[C@H](N(C)C(=O)/C=C/c4ccoc4)CC[C@@]4(O)[C@@H](C2)N(C(=O)C2CC2)CC[C@]314 [Example 34] | 0.259 | potent and selective antagonistic activity | > 10 | – | –
19 | CCCCS(=O)(=O)N1CC[C@]23c4c5ccc(OC)c4O[C@H]2[C@H](N(C)C(=O)/C=C/c2ccoc2)CC[C@@]3(O)[C@H]1C5 [Example 27] | 0.0878 | potent and selective antagonistic activity | > 10 | – | –
20 | CN(C(=O)/C=C/c1ccoc1)[C@@H]1CC[C@@]2(O)[C@H]3Cc4ccc(O)c5c4[C@@]2(CCN3CC2CC2)[C@H]1O5.Cl [Comparative Example 1, (E)-N-[(4R,4aS,7R,7aR,12bS)-3-(cyclopropylmethyl)-4a,9-dihydroxy-2,3,4,4a,5,6,7,7a-octahydro-1H-4,12-methanobenzofuro[3,2-e]isoquinolin-7-yl]-3-(furan-3-yl)-N-methylacrylamide hydrochloride, reference compound] | 1.65 | very weak antagonistic activity | > 10 | – | –
21 | COc1ccc2c3c1O[C@H]1[C@H](N(C)C(=O)NCc4ccccc4)CC[C@@]4(O)[C@@H](C2)N(S(=O)(=O)c2ccccc2)CC[C@]314 [Example 42] | 0.688 | potent and selective antagonistic activity | > 10 | – | –
